Experimental data: US10710978B2, “STK4 inhibitors for treatment of hematologic malignancies” (Dana-Farber Cancer Institute, Inc., priority 2015, dated 2020)
Like-named read-outs stand apart in the source and are kept apart here.

Tests used:
Experiment in all cases: KiNativ assay
Format in all cases: binding
[1] = target: AurB (Homo sapiens (Human), UniProt Q96GD4); conditions: H929 live cell
Description: (§1) Biochemical IC50s of the compounds of the present disclosure against various kinases were measured in a KiNativ assay. Compounds were screened in duplicate at 10 μM in H929 live cell. IC50 was measured via Mass spectroscopy (MS).

[2] = test system: CDK11, CDK8; conditions: H929 live cell; for % inhibition: 10 μM, range class
Description: as §1

[3] = target: CDK7 (Homo sapiens (Human), UniProt P50613); conditions: H929 live cell
Sequence of CDK7 (P50613 whole entry): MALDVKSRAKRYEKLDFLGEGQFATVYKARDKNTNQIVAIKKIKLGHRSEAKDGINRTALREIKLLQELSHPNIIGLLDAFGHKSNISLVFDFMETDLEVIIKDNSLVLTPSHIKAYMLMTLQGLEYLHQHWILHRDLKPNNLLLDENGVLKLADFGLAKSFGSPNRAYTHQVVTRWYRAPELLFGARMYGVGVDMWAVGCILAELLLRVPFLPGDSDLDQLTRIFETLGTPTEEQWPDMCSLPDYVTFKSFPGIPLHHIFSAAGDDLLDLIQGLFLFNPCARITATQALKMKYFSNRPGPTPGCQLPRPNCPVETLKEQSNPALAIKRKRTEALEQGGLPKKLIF
Sequence of CDK7 (P51946 whole entry partner): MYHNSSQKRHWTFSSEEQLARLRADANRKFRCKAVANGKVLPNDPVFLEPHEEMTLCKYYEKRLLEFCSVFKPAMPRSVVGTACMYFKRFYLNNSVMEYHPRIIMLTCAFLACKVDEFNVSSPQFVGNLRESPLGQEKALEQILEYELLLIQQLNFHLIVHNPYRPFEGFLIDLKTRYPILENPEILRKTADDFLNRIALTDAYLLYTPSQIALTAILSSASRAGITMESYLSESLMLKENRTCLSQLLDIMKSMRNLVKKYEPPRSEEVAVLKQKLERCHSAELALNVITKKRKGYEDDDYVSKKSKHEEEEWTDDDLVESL
Sequence of CDK7 (P51948 whole entry partner): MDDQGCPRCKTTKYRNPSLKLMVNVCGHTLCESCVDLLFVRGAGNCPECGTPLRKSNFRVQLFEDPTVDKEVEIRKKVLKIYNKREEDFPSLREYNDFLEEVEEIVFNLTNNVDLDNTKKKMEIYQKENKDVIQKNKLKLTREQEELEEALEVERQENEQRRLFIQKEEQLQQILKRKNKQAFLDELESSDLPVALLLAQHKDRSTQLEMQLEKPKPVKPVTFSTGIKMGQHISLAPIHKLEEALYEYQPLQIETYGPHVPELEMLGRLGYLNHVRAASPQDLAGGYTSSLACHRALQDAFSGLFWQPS
Description: as §1

[4] = target: CHK2 (Homo sapiens (Human), UniProt O96017); conditions: H929 live cell
Description: as §1

[5] = target: CK1g2 (Homo sapiens (Human), UniProt P78368); conditions: H929 live cell
Sequence of CK1g2 (P78368 whole entry): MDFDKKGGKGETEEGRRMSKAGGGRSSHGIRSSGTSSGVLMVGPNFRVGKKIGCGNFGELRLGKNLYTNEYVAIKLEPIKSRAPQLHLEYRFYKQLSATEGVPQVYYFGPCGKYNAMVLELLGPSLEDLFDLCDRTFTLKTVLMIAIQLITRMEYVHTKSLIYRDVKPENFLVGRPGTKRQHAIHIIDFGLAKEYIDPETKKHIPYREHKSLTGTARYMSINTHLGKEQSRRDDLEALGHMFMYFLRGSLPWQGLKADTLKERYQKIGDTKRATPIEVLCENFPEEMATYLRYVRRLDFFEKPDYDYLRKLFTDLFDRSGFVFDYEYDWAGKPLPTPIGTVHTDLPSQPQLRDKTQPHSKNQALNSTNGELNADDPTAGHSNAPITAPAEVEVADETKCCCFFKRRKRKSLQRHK
Description: as §1

[6] = target: CaMK2d (Homo sapiens (Human), UniProt Q13557); conditions: H929 live cell
Description: as §1

[7] = target: DGKH (Homo sapiens (Human), UniProt Q86XP1); conditions: H929 live cell
Description: as §1

[8] = target: GSK3B (Homo sapiens (Human), UniProt P49841); conditions: H929 live cell
Description: as §1

[9] = target: JAK3 domain2 (Homo sapiens (Human), UniProt P52333); conditions: H929 live cell
Description: as §1

[10] = test system: KSR1, KSR2; conditions: H929 live cell; for % inhibition: 10 μM, range class
Description: as §1

[11] = target: LKB1 (Homo sapiens (Human), UniProt Q15831); conditions: H929 live cell
Description: as §1

[12] = target: MAP2K5 (Homo sapiens (Human), UniProt Q13163); conditions: H929 live cell
Description: as §1

[13] = target: MAP2K7 (Homo sapiens (Human), UniProt O14733); conditions: H929 live cell
Description: as §1

[14] = test system: MARK1, MARK2; conditions: H929 live cell; for % inhibition: 10 μM, range class
Description: as §1

[15] = target: MSK2 domain1 (Homo sapiens (Human), UniProt O75676); conditions: H929 live cell
Description: as §1

[16] = target: MST2 (Homo sapiens (Human), UniProt Q13188); conditions: H929 live cell
Sequence of MST2 (Q13188 whole entry): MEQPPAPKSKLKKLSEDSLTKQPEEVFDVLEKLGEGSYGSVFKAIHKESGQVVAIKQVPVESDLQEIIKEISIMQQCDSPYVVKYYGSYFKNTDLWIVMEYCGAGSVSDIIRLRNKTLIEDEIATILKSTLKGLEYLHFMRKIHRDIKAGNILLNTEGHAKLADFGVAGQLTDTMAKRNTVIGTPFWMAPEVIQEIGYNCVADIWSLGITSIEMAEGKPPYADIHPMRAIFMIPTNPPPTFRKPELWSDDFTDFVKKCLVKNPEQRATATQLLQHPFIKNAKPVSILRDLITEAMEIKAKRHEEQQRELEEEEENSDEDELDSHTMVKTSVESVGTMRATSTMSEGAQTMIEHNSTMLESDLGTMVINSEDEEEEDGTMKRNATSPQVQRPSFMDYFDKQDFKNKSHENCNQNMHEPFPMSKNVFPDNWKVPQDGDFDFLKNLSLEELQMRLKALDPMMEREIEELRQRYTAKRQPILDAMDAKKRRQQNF
Description: as §1

[17] = test system: MST4, YSK1; conditions: H929 live cell; for % inhibition: 10 μM, range class
Description: as §1

[18] = target: NDR2 (Homo sapiens (Human), UniProt Q9Y2H1); conditions: H929 live cell
Sequence of NDR2 (Q9Y2H1 whole entry): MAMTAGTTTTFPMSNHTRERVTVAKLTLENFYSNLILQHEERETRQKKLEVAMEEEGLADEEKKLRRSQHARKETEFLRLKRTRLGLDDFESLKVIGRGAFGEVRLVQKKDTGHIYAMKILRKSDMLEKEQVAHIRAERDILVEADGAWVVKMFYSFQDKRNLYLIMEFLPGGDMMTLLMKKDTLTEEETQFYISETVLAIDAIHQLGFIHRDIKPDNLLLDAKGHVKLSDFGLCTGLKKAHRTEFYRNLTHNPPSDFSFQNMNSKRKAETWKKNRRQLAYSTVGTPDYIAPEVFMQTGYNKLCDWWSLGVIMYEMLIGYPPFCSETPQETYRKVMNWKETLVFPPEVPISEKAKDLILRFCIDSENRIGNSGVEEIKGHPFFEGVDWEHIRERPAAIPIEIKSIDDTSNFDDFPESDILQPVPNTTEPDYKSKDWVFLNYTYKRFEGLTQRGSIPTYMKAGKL
Description: as §1

[19] = target: NEK9 (Homo sapiens (Human), UniProt Q8TD19); conditions: H929 live cell
Description: as §1

[20] = target: PFTAIRE1 (Homo sapiens (Human), UniProt O94921); conditions: H929 live cell
Sequence of PFTAIRE1 (O94921 whole entry): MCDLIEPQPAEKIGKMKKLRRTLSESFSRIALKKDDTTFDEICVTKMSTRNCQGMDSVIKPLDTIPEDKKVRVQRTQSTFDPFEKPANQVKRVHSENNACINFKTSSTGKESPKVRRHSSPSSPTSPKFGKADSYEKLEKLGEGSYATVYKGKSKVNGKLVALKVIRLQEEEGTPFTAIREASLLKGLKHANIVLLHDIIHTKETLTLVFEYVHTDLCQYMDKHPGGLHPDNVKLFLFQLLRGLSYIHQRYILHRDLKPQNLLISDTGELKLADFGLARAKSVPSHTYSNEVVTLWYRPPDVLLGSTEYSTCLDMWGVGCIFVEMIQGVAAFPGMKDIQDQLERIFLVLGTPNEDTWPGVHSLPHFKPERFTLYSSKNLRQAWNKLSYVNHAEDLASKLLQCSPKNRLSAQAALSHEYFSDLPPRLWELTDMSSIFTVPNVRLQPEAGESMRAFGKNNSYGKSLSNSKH
Sequence of PFTAIRE1 (Q8ND76 whole entry partner): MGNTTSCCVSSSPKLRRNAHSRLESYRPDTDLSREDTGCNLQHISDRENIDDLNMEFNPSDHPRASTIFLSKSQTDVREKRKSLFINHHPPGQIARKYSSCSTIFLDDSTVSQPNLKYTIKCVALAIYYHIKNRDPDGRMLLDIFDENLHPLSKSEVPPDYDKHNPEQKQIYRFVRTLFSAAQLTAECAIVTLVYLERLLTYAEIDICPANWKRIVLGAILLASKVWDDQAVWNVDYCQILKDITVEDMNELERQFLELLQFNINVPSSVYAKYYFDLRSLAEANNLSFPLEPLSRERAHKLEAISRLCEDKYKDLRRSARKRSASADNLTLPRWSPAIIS
Description: as §1

[21] = target: PIK3CB (Homo sapiens (Human), UniProt P42338); conditions: H929 live cell
Description: as §1

[22] = target: PRP4 (Homo sapiens (Human), UniProt Q13523); conditions: H929 live cell
Description: as §1

[23] = target: TAO2 (Homo sapiens (Human), UniProt Q9UL54); conditions: H929 live cell
Sequence of TAO2 (Q9UL54 whole entry): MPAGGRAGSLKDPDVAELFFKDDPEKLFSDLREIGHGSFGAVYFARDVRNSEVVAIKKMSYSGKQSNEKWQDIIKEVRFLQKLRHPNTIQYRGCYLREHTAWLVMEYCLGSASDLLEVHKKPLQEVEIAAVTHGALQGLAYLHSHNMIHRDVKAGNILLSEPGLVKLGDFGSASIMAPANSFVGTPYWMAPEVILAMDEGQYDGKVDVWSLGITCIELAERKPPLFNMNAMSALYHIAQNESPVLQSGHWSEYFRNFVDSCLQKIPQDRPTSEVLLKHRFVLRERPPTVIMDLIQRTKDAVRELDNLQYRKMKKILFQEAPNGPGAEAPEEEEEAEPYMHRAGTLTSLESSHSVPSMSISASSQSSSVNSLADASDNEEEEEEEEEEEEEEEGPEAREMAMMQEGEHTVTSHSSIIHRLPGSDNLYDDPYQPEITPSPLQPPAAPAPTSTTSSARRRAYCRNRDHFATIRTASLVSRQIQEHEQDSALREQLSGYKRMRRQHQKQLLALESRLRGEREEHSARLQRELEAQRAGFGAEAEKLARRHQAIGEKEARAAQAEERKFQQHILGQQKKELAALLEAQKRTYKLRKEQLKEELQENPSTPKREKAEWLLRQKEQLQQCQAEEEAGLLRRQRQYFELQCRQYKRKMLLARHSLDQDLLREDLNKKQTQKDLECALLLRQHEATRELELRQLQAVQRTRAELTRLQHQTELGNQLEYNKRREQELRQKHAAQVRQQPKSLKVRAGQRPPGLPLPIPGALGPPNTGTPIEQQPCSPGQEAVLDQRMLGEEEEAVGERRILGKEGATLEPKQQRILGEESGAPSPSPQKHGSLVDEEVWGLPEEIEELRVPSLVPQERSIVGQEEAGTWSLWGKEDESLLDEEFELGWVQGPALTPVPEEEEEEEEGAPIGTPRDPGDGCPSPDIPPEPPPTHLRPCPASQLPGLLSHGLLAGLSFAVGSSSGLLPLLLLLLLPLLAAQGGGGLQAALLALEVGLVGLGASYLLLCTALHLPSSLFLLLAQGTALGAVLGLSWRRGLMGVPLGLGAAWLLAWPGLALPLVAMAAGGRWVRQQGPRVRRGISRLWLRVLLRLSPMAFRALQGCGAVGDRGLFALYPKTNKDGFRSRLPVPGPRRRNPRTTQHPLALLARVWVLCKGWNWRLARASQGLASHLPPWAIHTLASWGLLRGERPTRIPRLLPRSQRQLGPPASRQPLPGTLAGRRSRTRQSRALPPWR
Description: as §1

[24] = target: TYK2 domain2 (Homo sapiens (Human), UniProt P29597); conditions: H929 live cell
Description: as §1

[25] = range class, read-out: % inhibition

Sequence of AurB (Q96GD4 whole entry): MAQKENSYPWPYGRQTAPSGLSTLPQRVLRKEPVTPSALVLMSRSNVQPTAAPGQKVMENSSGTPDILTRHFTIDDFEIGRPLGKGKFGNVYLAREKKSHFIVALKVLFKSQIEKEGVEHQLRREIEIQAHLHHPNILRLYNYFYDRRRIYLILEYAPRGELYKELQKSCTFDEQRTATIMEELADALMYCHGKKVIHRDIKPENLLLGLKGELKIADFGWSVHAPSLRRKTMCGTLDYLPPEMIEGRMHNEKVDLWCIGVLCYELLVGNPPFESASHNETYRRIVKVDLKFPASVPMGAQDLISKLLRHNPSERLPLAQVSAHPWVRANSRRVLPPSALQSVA

Nc1ncc(-c2ccc(NS(=O)(=O)C3CC3)cc2F)cc1-c1ccc2c(c1)CCNC2=O [Compound I-51, N-(4-(6-amino-5-(1-oxo-1,2,3,4-tetrahydroisoquinolin-6-yl)pyridin-3-yl)-3-fluorophenyl) cyclopropanesulfonamide]
inhibition at 10 µM [1, 25]: 0% | inhibition at 10 µM ([1]; read-out: inhibition (10 μM)): 31.8% | % inhibition [2]: 0.0% | inhibition (10 μM) [2]: 31.8% | inhibition at 10 µM [3, 25]: 0% | inhibition at 10 µM ([3]; read-out: inhibition (10 μM)): 17.4% | inhibition at 10 µM [4, 25]: 0% | inhibition at 10 µM ([4]; read-out: inhibition (10 μM)): 14.1% | inhibition at 10 µM [5, 25]: 75 to 90% | inhibition at 10 µM ([5]; read-out: inhibition (10 μM)): 84.1% | inhibition at 10 µM [6, 25]: 0% | inhibition at 10 µM ([6]; read-out: inhibition (10 μM)): 2.3% | inhibition at 10 µM [7, 25]: 0% | inhibition at 10 µM ([7]; read-out: inhibition (10 μM)): 2.7% | inhibition at 10 µM [8, 25]: > 90% | inhibition at 10 µM ([8]; read-out: inhibition (10 μM)): 90.2% | inhibition at 10 µM [9, 25]: 0% | inhibition at 10 µM ([9]; read-out: inhibition (10 μM)): 13.4% | % inhibition [10]: 0.0% | inhibition (10 μM) [10]: −5.2% | inhibition at 10 µM [11, 25]: 0% | inhibition at 10 µM ([11]; read-out: inhibition (10 μM)): 5.1% | inhibition at 10 µM [12, 25]: 0% | inhibition at 10 µM ([12]; read-out: inhibition (10 μM)): -4% | inhibition at 10 µM [13, 25]: 0% | inhibition at 10 µM ([13]; read-out: inhibition (10 μM)): 12.2% | % inhibition [14]: 0.0% | inhibition (10 μM) [14]: 9.3% | inhibition at 10 µM [15, 25]: 0% | inhibition at 10 µM ([15]; read-out: inhibition (10 μM)): -8% | inhibition at 10 µM [16, 25]: > 90% | inhibition at 10 µM ([16]; read-out: inhibition (10 μM)): 95.3% | % inhibition [17]: 50-75% | inhibition (10 μM) [17]: 68.1% | inhibition at 10 µM [18, 25]: 0% | inhibition at 10 µM ([18]; read-out: inhibition (10 μM)): 8.4% | inhibition at 10 µM [19, 25]: 0% | inhibition at 10 µM ([19]; read-out: inhibition (10 μM)): -20.8% | inhibition at 10 µM [20, 25]: 0% | inhibition at 10 µM ([20]; read-out: inhibition (10 μM)): 8.8% | inhibition at 10 µM [21, 25]: 0% | inhibition at 10 µM ([21]; read-out: inhibition (10 μM)): 7.2% | inhibition at 10 µM [22, 25]: 0% | inhibition at 10 µM ([22]; read-out: inhibition (10 μM)): 10.2% | inhibition at 10 µM [23, 25]: 35 to 40% | inhibition at 10 µM ([23]; read-out: inhibition (10 μM)): 40.9% | inhibition at 10 µM [24, 25]: 0% | inhibition at 10 µM ([24]; read-out: inhibition (10 μM)): -23.9%

Nc1ncc(-c2ccc(NS(=O)(=O)C3CC3)cc2OC2CCCCC2)cc1-c1ccc2c(c1)CCNC2=O [Compound I-65, N-(4-(6-amino-5-(1-oxo-1,2,3,4-tetrahydroisoquinolin-6-yl)pyridin-3-yl)-3-(cyclohexyloxy)phenyl) cyclopropanesulfonamide]
inhibition at 10 µM [1, 25]: 0% | inhibition at 10 µM ([1]; read-out: inhibition (10 μM)): 21% | % inhibition [2]: 0.0% | inhibition (10 μM) [2]: 31.3% | inhibition at 10 µM [3, 25]: 0% | inhibition at 10 µM ([3]; read-out: inhibition (10 μM)): 29.9% | inhibition at 10 µM [4, 25]: 0% | inhibition at 10 µM ([4]; read-out: inhibition (10 μM)): 11.2% | inhibition at 10 µM [5, 25]: 50 to 75% | inhibition at 10 µM ([5]; read-out: inhibition (10 μM)): 74.5% | inhibition at 10 µM [6, 25]: 0% | inhibition at 10 µM ([6]; read-out: inhibition (10 μM)): 4.2% | inhibition at 10 µM [7, 25]: 0% | inhibition at 10 µM ([7]; read-out: inhibition (10 μM)): 7.3% | inhibition at 10 µM [8, 25]: > 90% | inhibition at 10 µM ([8]; read-out: inhibition (10 μM)): 90% | inhibition at 10 µM [9, 25]: 50 to 75% | inhibition at 10 µM ([9]; read-out: inhibition (10 μM)): 52.1% | % inhibition [10]: 0.0% | inhibition (10 μM) [10]: −5.7% | inhibition at 10 µM [11, 25]: 0% | inhibition at 10 µM ([11]; read-out: inhibition (10 μM)): 27.4% | inhibition at 10 µM [12, 25]: 0% | inhibition at 10 µM ([12]; read-out: inhibition (10 μM)): 15% | inhibition at 10 µM [13, 25]: 0% | inhibition at 10 µM ([13]; read-out: inhibition (10 μM)): 3.3% | % inhibition [14]: 0.0% | inhibition (10 μM) [14]: −29.4% | inhibition at 10 µM [15, 25]: 0% | inhibition at 10 µM ([15]; read-out: inhibition (10 μM)): -83.6% | inhibition at 10 µM [16, 25]: > 90% | inhibition at 10 µM ([16]; read-out: inhibition (10 μM)): 97.3% | % inhibition [17]: 35-40% | inhibition (10 μM) [17]: 46.3% | inhibition at 10 µM [18, 25]: 0% | inhibition at 10 µM ([18]; read-out: inhibition (10 μM)): -8.7% | inhibition at 10 µM [19, 25]: 0% | inhibition at 10 µM ([19]; read-out: inhibition (10 μM)): -27.8% | inhibition at 10 µM [20, 25]: 0% | inhibition at 10 µM ([20]; read-out: inhibition (10 μM)): -5.1% | inhibition at 10 µM [21, 25]: 0% | inhibition at 10 µM ([21]; read-out: inhibition (10 μM)): 14.6% | inhibition at 10 µM [22, 25]: 0% | inhibition at 10 µM ([22]; read-out: inhibition (10 μM)): -19.3% | inhibition at 10 µM [23, 25]: 0% | inhibition at 10 µM ([23]; read-out: inhibition (10 μM)): 8.3% | inhibition at 10 µM [24, 25]: 0% | inhibition at 10 µM ([24]; read-out: inhibition (10 μM)): -8.4%
